Reference: PMC9276671, “A first-in-human Phase I dose-escalation trial of the novel therapeutic peptide, ALM201, demonstrates a favourable safety profile in unselected patients with ovarian cancer and other advanced solid tumours” (British Journal of Cancer, 2022)
No end group written: not given here.

Assay: Plasma pharmacokinetics of ALM201 in Phase I patients (validated LC-MS/MS, Phoenix WinNonlin)
Conditions: for AUC(0-t): AUC0-t; for AUC(0-t) / Cmax: Gmean (CV); for level at 0.25 h: day 1 cycle 1, 0.25 h after dosing; for level at 0.75 h: day 1 cycle 1, 0.75 h after dosing; for Tmax: median
[1] = cycle 1, excluding patient 03.012
[2] = human, plasma, sc, 10 mg, 10 mg SC, day 1 cycle 1, n = 1, plasma LC-MS/MS
[3] = human, plasma, sc, 10 mg, 10 mg SC, day 3 cycle 1, n = 1, plasma LC-MS/MS
[4] = human, plasma, sc, 10 mg, 10 mg SC, day 18 cycle 1, n = 1, plasma LC-MS/MS
[5] = human, plasma, sc, 10 mg, 10 mg SC, day 18 cycle 2, n = 1, plasma LC-MS/MS
[6] = human, plasma, sc, 10 mg, 10 mg SC, day 18 cycle 4, n = 1, plasma LC-MS/MS
[7] = human, plasma, sc, 10 mg, 10 mg SC, day 18 cycle 6, n = 1, plasma LC-MS/MS
[8] = human, plasma, sc, 10 mg, Plasma concentration, geometric mean (CV%), 10 mg SC, n = 1, LC-MS/MS
[9] = human, plasma, sc, 20 mg, 20 mg SC, day 1 cycle 1, n = 1, plasma LC-MS/MS
[10] = human, plasma, sc, 20 mg, 20 mg SC, day 3 cycle 1, n = 1, plasma LC-MS/MS
[11] = human, plasma, sc, 20 mg, 20 mg SC, day 18 cycle 1, n = 1, plasma LC-MS/MS
[12] = human, plasma, sc, 20 mg, 20 mg SC, day 18 cycle 2, n = 1, plasma LC-MS/MS
[13] = human, plasma, sc, 20 mg, Plasma concentration, geometric mean (CV%), 20 mg SC, n = 1, LC-MS/MS

With IRQQPRDPPTETLELEVSPDPAS [ALM201] the “Plasma concentration, geometric mean (CV%)” value (from here on “Plasma concentration … (CV%)”) (10 mg SC, day 1 cycle 1, 4 h after dosing, n = 1, LC-MS/MS) was “NQ (not quantifiable (less than assay limit of quantification of 100 ng/mL))”, the “Plasma concentration … (CV%)” value (10 mg SC, day 1 cycle 1, 5 h after dosing, n = 1, LC-MS/MS) was “NQ (not quantifiable (less than assay limit of quantification of 100 ng/mL))” and the “Plasma concentration … (CV%)” value (10 mg SC, day 1 cycle 1, 6 h after dosing, n = 1, LC-MS/MS) was “NQ (not quantifiable (less than assay limit of quantification of 100 ng/mL))”. The “Plasma concentration … (CV%)” value (10 mg SC, day 1 cycle 1, 22 h after dosing, n = 1, LC-MS/MS) was “NQ (not quantifiable (less than assay limit of quantification of 100 ng/mL))”, the “Plasma concentration … (CV%)” value (10 mg SC, day 3 cycle 1, 5 h after dosing, n = 1, LC-MS/MS) was “NQ (not quantifiable (less than assay limit of quantification of 100 ng/mL))” and the “Plasma concentration … (CV%)” value (10 mg SC, day 18 cycle 1, 5 h after dosing, n = 1, LC-MS/MS) was “NQ (not quantifiable (less than assay limit of quantification of 100 ng/mL))”. The “Plasma concentration … (CV%)” value (20 mg SC, day 1 cycle 1, 4 h after dosing, n = 1, LC-MS/MS) was “NQ (not quantifiable (less than assay limit of quantification of 100 ng/mL))”, the “Plasma concentration … (CV%)” value (20 mg SC, day 1 cycle 1, 5 h after dosing, n = 1, LC-MS/MS) was “NQ (not quantifiable (less than assay limit of quantification of 100 ng/mL))” and the “Plasma concentration … (CV%)” value (20 mg SC, day 1 cycle 1, 6 h after dosing, n = 1, LC-MS/MS) was “NQ (not quantifiable (less than assay limit of quantification of 100 ng/mL))”. For the same sequence, the “Plasma concentration … (CV%)” value (20 mg SC, day 1 cycle 1, 22 h after dosing, n = 1, LC-MS/MS) was “NQ (not quantifiable (less than assay limit of quantification of 100 ng/mL))”, the “Plasma concentration … (CV%)” value (20 mg SC, day 3 cycle 1, 5 h after dosing, n = 1, LC-MS/MS) was “NQ (not quantifiable (less than assay limit of quantification of 100 ng/mL))” and the “Plasma concentration … (CV%)” value (20 mg SC, day 18 cycle 1, 5 h after dosing, n = 1, LC-MS/MS) was “NQ (not quantifiable (less than assay limit of quantification of 100 ng/mL))”. For the same sequence, the “Tmax, median” value (20 mg SC, day 18 cycle 2, n = 1, plasma LC-MS/MS) was 1 h, the “Plasma concentration … (CV%)” value (40 mg SC, day 1 cycle 1, 6 h after dosing, n = 1, LC-MS/MS) was “NQ (not quantifiable (less than assay limit of quantification of 100 ng/mL))” and the “Plasma concentration … (CV%)” value (40 mg SC, day 1 cycle 1, 22 h after dosing, n = 1, LC-MS/MS) was “NQ (not quantifiable (less than assay limit of quantification of 100 ng/mL))”. The “Cmax, Gmean (CV)” value (40 mg SC, day 18 cycle 2, n = 1, plasma LC-MS/MS) was 583 ng/mL, the “Plasma concentration … (CV%)” value (80 mg SC, day 1 cycle 1, 22 h after dosing, n = 3, LC-MS/MS) was “NQ (not quantifiable (less than assay limit of quantification of 100 ng/mL))” and the “Tmax, median” value (80 mg SC, day 3 cycle 1, n = 3, plasma LC-MS/MS) was 1.5 h. For the same sequence, the “Plasma concentration … (CV%)” value (100 mg SC, day 1 cycle 1, 22 h after dosing, n = 4, LC-MS/MS) was “NQ (not quantifiable (less than assay limit of quantification of 100 ng/mL))”, the “Plasma concentration … (CV%)” value (160 mg SC, day 1 cycle 1, 22 h after dosing, n = 3, LC-MS/MS) was “NQ (not quantifiable (less than assay limit of quantification of 100 ng/mL))” and the “Tmax, median” value (160 mg SC, day 3 cycle 1, n = 3, plasma LC-MS/MS) was 1.52 h. The “Tmax, median” value (160 mg SC, day 18 cycle 1, n = 3, plasma LC-MS/MS) was 1.5 h, the “Plasma concentration … (CV%)” value (200 mg SC, day 1 cycle 1, 22 h after dosing, n = 4, LC-MS/MS) was “NQ (not quantifiable (less than assay limit of quantification of 100 ng/mL))” and the “AUC0-t, Gmean (CV)” value (200 mg SC, day 18 cycle 2, n = 2, CV not calculated, plasma LC-MS/MS) was 5680 ng·h/mL. For the same sequence, the “Plasma concentration … (CV%)” value (300 mg SC, day 1 cycle 1, 22 h after dosing, n = 3, LC-MS/MS) was “NQ (not quantifiable (less than assay limit of quantification of 100 ng/mL))”, the “AUC0-t, Gmean (CV)” value (300 mg SC, day 18 cycle 1, n = 3, plasma LC-MS/MS) was 12,100 (6) ng.h/mL and the “Tmax, median” value (300 mg SC, day 18 cycle 2, n = 3, plasma LC-MS/MS) was 2 h. For the same sequence, the “Day 18:day 1 AUC0-t ratio, mean ± SD” value (cycle 1, all patients) was 1.27 ± 1.32, the “Day 18:day 1 Cmax ratio, mean ± SD” value (cycle 1, all patients) was 1.25 ± 0.97 and the “Day 18:day 1 AUC0-t ratio, mean ± SD” value [1] was 0.95 ± 0.26. The “Day 18:day 1 Cmax ratio, mean ± SD” value [1] was 1.03 ± 0.39, the Half-life (human, plasma, sc) was roughly 1.5 h and the AUC(0-t) [2] was 485 ng·h/mL. For the same sequence, the AUC(0-t) [3] was 868 ng·h/mL, the AUC(0-t) [4] was 817 ng·h/mL and the AUC(0-t) [5] was 702 ng·h/mL. For the same sequence, the AUC(0-t) [6] was 476 ng·h/mL, the AUC(0-t) [7] was 1040 ng·h/mL and the Cmax [2] was 200 ng/mL. The Cmax [3] was 406 ng/mL, the Cmax [4] was 352 ng/mL and the Cmax [5] was 288 ng/mL. The Cmax [6] was 193 ng/mL, the Cmax [7] was 470 ng/mL and the level at 0.25 h [8] was 106 ng/mL. The level at 0.75 h [8] was 150 ng/mL, the level at 1.5 h (human, plasma, sc, 10 mg, Plasma concentration, geometric mean (CV%), 10 mg SC, day 1 cycle 1, 1.5 h after dosing, n = 1, LC-MS/MS) was 200 ng/mL and the level at 2 h (human, plasma, sc, 10 mg, Plasma concentration, geometric mean (CV%), 10 mg SC, day 1 cycle 1, 2 h after dosing, n = 1, LC-MS/MS) was 199 ng/mL. The level at 3 h (human, plasma, sc, 10 mg, Plasma concentration, geometric mean (CV%), 10 mg SC, day 1 cycle 1, 3 h after dosing, n = 1, LC-MS/MS) was 153 ng/mL, the level at 0.5 h (human, plasma, sc, 10 mg, Plasma concentration, geometric mean (CV%), 10 mg SC, day 3 cycle 1, 0.5 h after dosing, n = 1, LC-MS/MS) was 406 ng/mL and the level at 1 h (human, plasma, sc, 10 mg, Plasma concentration, geometric mean (CV%), 10 mg SC, day 3 cycle 1, 1 h after dosing, n = 1, LC-MS/MS) was 325 ng/mL. It also gave a level at 1.5 h (human, plasma, sc, 10 mg, Plasma concentration, geometric mean (CV%), 10 mg SC, day 3 cycle 1, 1.5 h after dosing, n = 1, LC-MS/MS) of 294 ng/mL, a level at 2 h (human, plasma, sc, 10 mg, Plasma concentration, geometric mean (CV%), 10 mg SC, day 3 cycle 1, 2 h after dosing, n = 1, LC-MS/MS) of 242 ng/mL and a level at 3.5 h (human, plasma, sc, 10 mg, Plasma concentration, geometric mean (CV%), 10 mg SC, day 3 cycle 1, 3.5 h after dosing, n = 1, LC-MS/MS) of 127 ng/mL. It also gave a level at 0.5 h (human, plasma, sc, 10 mg, Plasma concentration, geometric mean (CV%), 10 mg SC, day 18 cycle 1, 0.5 h after dosing, n = 1, LC-MS/MS) of 188 ng/mL, a level at 1 h (human, plasma, sc, 10 mg, Plasma concentration, geometric mean (CV%), 10 mg SC, day 18 cycle 1, 1 h after dosing, n = 1, LC-MS/MS) of 283 ng/mL and a level at 1.5 h (human, plasma, sc, 10 mg, Plasma concentration, geometric mean (CV%), 10 mg SC, day 18 cycle 1, 1.5 h after dosing, n = 1, LC-MS/MS) of 352 ng/mL. The level at 2 h (human, plasma, sc, 10 mg, Plasma concentration, geometric mean (CV%), 10 mg SC, day 18 cycle 1, 2 h after dosing, n = 1, LC-MS/MS) was 325 ng/mL, the level at 3.5 h (human, plasma, sc, 10 mg, Plasma concentration, geometric mean (CV%), 10 mg SC, day 18 cycle 1, 3.5 h after dosing, n = 1, LC-MS/MS) was 113 ng/mL and the level at 0.5 h (human, plasma, sc, 10 mg, Plasma concentration, geometric mean (CV%), 10 mg SC, day 18 cycle 2, 0.5 h after dosing, n = 1, LC-MS/MS) was 158 ng/mL. For the same sequence, the level at 1 h (human, plasma, sc, 10 mg, Plasma concentration, geometric mean (CV%), 10 mg SC, day 18 cycle 2, 1 h after dosing, n = 1, LC-MS/MS) was 193 ng/mL, the level at 1.5 h (human, plasma, sc, 10 mg, Plasma concentration, geometric mean (CV%), 10 mg SC, day 18 cycle 2, 1.5 h after dosing, n = 1, LC-MS/MS) was 242 ng/mL and the level at 2 h (human, plasma, sc, 10 mg, Plasma concentration, geometric mean (CV%), 10 mg SC, day 18 cycle 2, 2 h after dosing, n = 1, LC-MS/MS) was 288 ng/mL. For the same sequence, the level at 3.5 h (human, plasma, sc, 10 mg, Plasma concentration, geometric mean (CV%), 10 mg SC, day 18 cycle 2, 3.5 h after dosing, n = 1, LC-MS/MS) was 161 ng/mL, the level at 1 h (human, plasma, sc, 10 mg, Plasma concentration, geometric mean (CV%), 10 mg SC, day 18 cycle 4, 1 h after dosing, n = 1, LC-MS/MS) was 176 ng/mL and the level at 1.5 h (human, plasma, sc, 10 mg, Plasma concentration, geometric mean (CV%), 10 mg SC, day 18 cycle 4, 1.5 h after dosing, n = 1, LC-MS/MS) was 193 ng/mL. It also gave a level at 2 h (human, plasma, sc, 10 mg, Plasma concentration, geometric mean (CV%), 10 mg SC, day 18 cycle 4, 2 h after dosing, n = 1, LC-MS/MS) of 171 ng/mL, a level at 3.5 h (human, plasma, sc, 10 mg, Plasma concentration, geometric mean (CV%), 10 mg SC, day 18 cycle 4, 3.5 h after dosing, n = 1, LC-MS/MS) of 157 ng/mL and a level at 0.5 h (human, plasma, sc, 10 mg, Plasma concentration, geometric mean (CV%), 10 mg SC, day 18 cycle 6, 0.5 h after dosing, n = 1, LC-MS/MS) of 171 ng/mL. The level at 1.5 h (human, plasma, sc, 10 mg, Plasma concentration, geometric mean (CV%), 10 mg SC, day 18 cycle 6, 1.5 h after dosing, n = 1, LC-MS/MS) was 470 ng/mL, the level at 2 h (human, plasma, sc, 10 mg, Plasma concentration, geometric mean (CV%), 10 mg SC, day 18 cycle 6, 2 h after dosing, n = 1, LC-MS/MS) was 403 ng/mL and the level at 3.5 h (human, plasma, sc, 10 mg, Plasma concentration, geometric mean (CV%), 10 mg SC, day 18 cycle 6, 3.5 h after dosing, n = 1, LC-MS/MS) was 179 ng/mL. For the same sequence, the Tmax [2] was 1.45 h, the Tmax [3] was 0.5 h and the Tmax [4] was 1.58 h. The Tmax [5] was 2 h, the Tmax [6] was 1.53 h and the Tmax [7] was 1.85 h. It also gave an AUC(0-t) [9] of 1040 ng·h/mL, an AUC(0-t) [10] of 1160 ng·h/mL and an AUC(0-t) [11] of 718 ng·h/mL. It also gave an AUC(0-t) [12] of 1020 ng·h/mL, a Cmax [9] of 542 ng/mL and a Cmax [10] of 614 ng/mL. For the same sequence, the Cmax [11] was 319 ng/mL, the Cmax [12] was 394 ng/mL and the level at 0.25 h [13] was 136 ng/mL. For the same sequence, the level at 0.75 h [13] was 368 ng/mL.
